Results taken from patent US20030143172A1, “Hair treatment agent” (priority 2001, published 2003).

Legend:
[1] = Dechlorinating ability (iodometric titration of free chlorine in chlorine water); settings: initial free chlorine 0.43
Method: To chlorine water having a previously determined free chlorine concentration, APS or AG was added and the amount of free chlorine decreased was measured. The free chlorine amount was measured by iodometric titiration.
To each of three Erlenmeyer flasks with a stopper, 10 ml of chlorine water having a known free chlorine concentration was added and thereto, APS or AG in an equimolar amount, 1.5 times molar amount or 2 times molar amount to the free chlorine in the solution was added and stirred. After 5 minutes, 10 minutes, 15 minutes and 20 minutes, the amount of free chlorine was titrated.
In the titration, 2 ml of each reaction solution was charged into another Erlenmeyer flask with a stopper, 50 ml of distilled water was added thereto, 1.0 g of potassium iodide and 1 ml of a 0.2% starch solution were further added and after stirring, a 0.1 N sodium thiosulfate standard solution was added dropwise. The point where purple color was faded out was designated as a final point. From the amount of sodium thiosulfate added dropwise at this time, the amount of free chlorine was calculated.

[2] = Ability of preventing decolorization of melanin pigment caused by chlorine (absorbance at 400 nm); set-up: species or system sepia officinailis; settings: for 3 Hours After Addition abs / 6 Hours After Addition abs / Before Addition abs: 400 nm; for 3 Hours After Addition abs / Residual Ratio, 3H: 3 hours after addition of chlorine water; for 6 Hours After Addition abs / Residual Ratio, 6H: 6 hours after addition of chlorine water; for Before Addition abs: before addition of chlorine water (baseline)
Method: A melanin pigment (sepia officinailis) was added to a 2 N aqueous sodium hydroxide solution and dissolved under heating at 80° C. for 2 hours to adjust the melanin pigment content in the solution to 50 ppm. This melanin pigment solution was divided into 5 vessels and 5 kinds in total of sample solutions were prepared, namely, solutions adjusted to an APS concentration of 10 mM and 50 mM, solutions adjusted to an AG concentration of 10 mM and 50 mM, and a control having added thereto neither APS nor AG. Then, 4 ml of each solution was sampled in a sampling bottle and 0.5 ml of commercially available chlorine water (free chlorine concentration: about 0.43%) was added to each sampling bottle. As a blank, a melanin pigment solution was used. The prevention of melanin decolorization was evaluated by measuring the absorbance (abs) at 400 nm using a spectrophotometer when 3 hours (3 H) and 6 hours (6H) were passed after the addition of chlorine water.

[3] = Ability of preventing hair damage caused by chlorine (color difference ΔE of hair); set-up: species or system human; settings: aqueous 10 mM solution, chlorine water, one hour
Method: 120 ml of an aqueous 10 mM APS solution, 120 ml of an aqueous 10 mM AG solution and 120 ml of purified water each was poured into two bottles with a screw opening. In the aqueous 10 mM APS solution, the aqueous 10 mM AG solution or the purified water, hair of an adult and hair of a child, which were previously subjected to the measurement of color (L*a*b color specification) by a spectrocolorimeter (Macbeth Gretag APM50), each was immersed in an amount of 70 to 80 mg while stirring. To each solution in which the hair was immersed, 15 ml of a commercially available chlorine water (concentration of free chlorine: about 0.43%) was added. After stirring for one hour, the hair was filtered, washed with water and air-dried. The resulting hairs were measured on the color (L*a*b* color specification) and from the values obtained, the color difference ΔE value was calculated.

[4] = Hydroxy radical-scavenging ability (ESR-spin trap method); format: biochemical
Method: Using “ESR-spin trap method”, the radical scavenging in percentage of each of ascorbyl 2-phosphate sodium salt (APS), ascorbyl 2-phosphate magnesium salt (APM) and ascorbyl 2-glucoside (AG) was measured. The radicals were chemically generated.
10 μl of 1M HEPES buffer solution (pH: 7.2), 10 μl of 1 mM diethylenetriaminepentaacetic acid, each of 20 μl of APS, APM or AG solution, 100 μl of purified water, 40 μl of 40 mM 2,2′-azobis(2-methylpropionamidine)dihydrochloride and 20 μl of 0.5 M 5,5-dimethyl-1-pyrroline-N-oxide were added and mixed. The obtained solutions were sequentially enclosed into flat cells for ESR and the cells were placed in an ESR apparatus (“JES-RE1X”, manufactured by JEOL Ltd.) and subjected to the measurement of hydroxy radical-scavenging ability. The hydroxy radical-scavenging ability is shown by S/M value (area value of spectrum/area value of manganese marker) and the scavenging ratio is shown by percentage (%).

[5] = Ability of preventing hair damage caused by sunlight (weather meter irradiation, ΔE of hair); settings: pH 7.2, irradiation 24 hours
Method: An APS solution, an AG solution, which were each adjusted to a pH of 7.2 and a concentration of 10 mM or 100 mM, and purified water (control) each was charged into a polyethylene bag and in respective bags, from 70 to 80 g of hair previously measured on the color (L*a*b* color specification) by a spectrocolorimeter (Macbeth Gretag APM50) was enclosed. After the immersion for about 2 hours, light was irradiated thereon using a weather meter (high energy xenon weather meter, manufactured by Suga Shikenki K. K.). The irradiation time was 24 hours and the integrated light intensity was about 10,000 kj/m^2. The hair after the irradiation was washed with purified water, air-dried and then subjected to the measurement of color (L*a*b* color specification) and from the values obtained, the color difference ΔE value was calculated.

[6] = molar ratio additive:free chlorine 1.0:1.0
[7] = molar ratio additive:free chlorine 1.5:1.0
[8] = molar ratio additive:free chlorine 2.0:1.0

SMILES | Free chlorine After 5 Minutes [1, 6] | Free chlorine After 10 Minutes [1, 6] | Free chlorine After 15 Minutes [1, 6] | Free chlorine After 20 Minutes [1, 6] | Free chlorine After 5 Minutes [1, 7] | Free chlorine After 10 Minutes [1, 7] | Free chlorine After 15 Minutes [1, 7] | Free chlorine After 20 Minutes [1, 7] | Free chlorine After 5 Minutes [1, 8] | Free chlorine After 10 Minutes [1, 8] | Radical scavenging, % (S/M relative to 0 mM = 100.0) ([4]; concentration 0.01 mM) | S/M (area value of spectrum/area value of manganese marker) ([4]; concentration 0.01 mM) | Radical scavenging, % (S/M relative to 0 mM = 100.0) ([4]; concentration 0.03 mM) | S/M (area value of spectrum/area value of manganese marker) ([4]; concentration 0.03 mM) | Radical scavenging, % (S/M relative to 0 mM = 100.0) ([4]; concentration 0.1 mM) | S/M (area value of spectrum/area value of manganese marker) ([4]; concentration 0.1 mM) | Radical scavenging, % (S/M relative to 0 mM = 100.0) ([4]; concentration 0.3 mM) | S/M (area value of spectrum/area value of manganese marker) ([4]; concentration 0.3 mM) | Radical scavenging, % (S/M relative to 0 mM = 100.0) ([4]; concentration 1 mM) | S/M (area value of spectrum/area value of manganese marker) ([4]; concentration 1 mM) | other results
O=C1O[C@H]([C@@H](O)CO)C(O)=C1O[C@H]1O[C@H](CO)[C@@H](O)[C@H](O)[C@H]1O [AG, ascorbyl 2-glucoside] | 0.033% | 0.02% | 0.01% | 0% | 0.008% | 0% | 0% | 0% | 0% | 0% | 98.5% | 0.64 | 89.2% | 0.58 | 98.5% | 0.64 | 90.8% | 0.59 | 61.5% | 0.40 | Free chlorine After 15 Minutes [1, 8]: 0%; Free chlorine After 20 Minutes [1, 8]: 0%; 3 Hours After Addition abs ([2]; additive 10 mM): 0.458 abs; 6 Hours After Addition abs ([2]; additive 10 mM): 0.447 abs; Before Addition abs ([2]; additive 10 mM): 0.575 abs; Residual Ratio, 3H ([2]; additive 10 mM): 0.797; Residual Ratio, 6H ([2]; additive 10 mM): 0.777; 3 Hours After Addition abs ([2]; additive 50 mM): 0.553 abs; 6 Hours After Addition abs ([2]; additive 50 mM): 0.540 abs; Before Addition abs ([2]; additive 50 mM): 0.569 abs; Residual Ratio, 3H ([2]; additive 50 mM): 0.972; Residual Ratio, 6H ([2]; additive 50 mM): 0.949; ΔE Value of Hair Treated With Chlorine ([3]; hair of child): 1.1; ΔE Value of Weather Meter Treated-hair ([5]; concentration 10 mM): 10.72; ΔE Value of Weather Meter Treated-hair ([5]; concentration 100 mM): 6.01
O=C1O[C@H]([C@@H](O)CO)C([O-])=C1OP(=O)([O-])[O-].O=C1O[C@H]([C@@H](O)CO)C([O-])=C1OP(=O)([O-])[O-].[Mg+2].[Mg+2].[Mg+2] [APM, ascorbyl 2-phosphate magnesium salt] |  |  |  |  |  |  |  |  |  |  | 89.2% | 0.58 | 92.3% | 0.60 | 81.5% | 0.53 | 64.6% | 0.42 | 18.5% | 0.12 | 
O=C1O[C@H]([C@@H](O)CO)C([O-])=C1OP(=O)([O-])[O-].[Na+].[Na+].[Na+] [APS, ascorbyl 2-phosphate sodium salt] | 0.02% | 0.012% | 0.008% | 0% | 0.005% | 0% | 0% | 0% | 0% | 0% | 103.1% | 0.67 | 104.6% | 0.68 | 78.5% | 0.51 | 53.8% | 0.35 | 16.9% | 0.11 | Free chlorine After 15 Minutes [1, 8]: 0%; Free chlorine After 20 Minutes [1, 8]: 0%; 3 Hours After Addition abs ([2]; additive 10 mM): 0.449 abs; 6 Hours After Addition abs ([2]; additive 10 mM): 0.453 abs; Before Addition abs ([2]; additive 10 mM): 0.577 abs; Residual Ratio, 3H ([2]; additive 10 mM): 0.773; Residual Ratio, 6H ([2]; additive 10 mM): 0.785; 3 Hours After Addition abs ([2]; additive 50 mM): 0.545 abs; 6 Hours After Addition abs ([2]; additive 50 mM): 0.505 abs; Before Addition abs ([2]; additive 50 mM): 0.592 abs; Residual Ratio, 3H ([2]; additive 50 mM): 0.921; Residual Ratio, 6H ([2]; additive 50 mM): 0.853; ΔE Value of Hair Treated With Chlorine ([3]; hair of Adult person): 0.4; ΔE Value of Hair Treated With Chlorine ([3]; hair of child): 0.5; ΔE Value of Weather Meter Treated-hair ([5]; concentration 10 mM): 14.36; ΔE Value of Weather Meter Treated-hair ([5]; concentration 100 mM): 4.54
